According to PubChem BioAssay AID179 (DTP/NCI, 2004):
The source made the active and inactive calls.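 Rule for the calls: active = compounds giving half or more protection of infected cells from virus-caused growth loss, again on retest; inactive = the rest.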

Tested on: CEM cells HIV-1 protection, formazan growth assay
Assay: NCI AIDS Antiviral Assay
Conditions: for IC50: measured here: growth of uninfected CEM cells
Outline: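 Soluble formazan readout of cell growth; CEM cells ± HIV-1; 5 drug concs. ≥50% protection → retest; ≥50% again = moderately active; reproducible 100% = confirmed active.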

| SMILES | EC50 [µM] | IC50 [µM] | outcome |
| --- | --- | --- | --- |
| CCC[CH2][Sn]([CH2]CCC)([O]C(=O)c1nccnc1N)[O]C(=O)c1nccnc1N | > 51.3 | 0.288 |  |
| CCOC(=O)C1Sc2c(c(=O)n(C)c3ccccc23)C1=O (centres undefined) | > 16.6 | 12 |  |
| O=S(=O)(OC=C1CCCCC1)C(F)(F)F | > 107 | > 107 |  |
| O=C(O)C(O)C(O)C(O)C(O)C(O)C(O)CO (centres undefined) |  |  | inactive |
| COC(=O)C(C)(C)OCc1ccc(C2NC(=O)N(c3cccc(Cl)c3)C(=O)N2c2cccc(Cl)c2)cc1 (centres undefined) | > 200 | 24 |  |
| COC(=O)C(C(=O)C(=O)Nc1cccc([N+](=O)[O-])c1)c1nc2ccc([N+](=O)[O-])cc2[nH]c1=O (centres undefined) | > 550 | 309 |  |
| O=c1oc2c3ccccc3c3ccccc3c2c2oc3c4ccccc4c4ccccc4c3c12 | 0.0209 | 0.955 |  |
| COC(=O)C1CC2CC1C1C2SC(F)(F)C1(F)F (centres undefined) | > 200 | > 200 |  |
| COc1ccc(NC(=O)CC(=O)N2N=C(N(CCC#N)c3cccc(C)c3)CC2c2ccccc2)cc1 (centres undefined) | > 100 | > 100 |  |
| OCC(O)CSSCC(O)C(O)CSSCC(O)CO (centres undefined) |  |  | inactive |
| S=C(N/N=C/c1ccccc1)NC12CC3CC(CC(C3)C1)C2 |  |  | inactive |
| c1cnn([B-]2(n3cccn3)n3ccc[n+]3[B-](n3cccn3)(n3cccn3)n3ccc[n+]32)c1 | > 200 | > 200 |  |
| COc1cc(/C=C2\C(=O)N(c3ccccc3Cl)C(c3ccccc3)S2(=O)=O)cc(OC)c1OC (centres undefined) | > 200 | 85.1 |  |
| CCN(CC)C(=O)C1(C)NS(=O)(=O)c2ccccc2C1=O (centres undefined) | > 200 | > 200 |  |
| CCOC(=O)[C@@H]1OC(c2ccccc2)O[C@H]1C(=O)OCC | > 200 | > 200 |  |
| CC(=O)Oc1ccc2c(c1)[nH]c1c3ccc(OC(C)=O)cc3oc(=O)c21 | > 200 | 11.7 |  |
| CCN(CC)CCC(=O)c1ccc(Cl)cc1 | > 912 | 12.3 |  |
| COc1ccc(-c2c3c(nc4nc(SC)nc(SC)c24)CCCC3)cc1OC | > 100 | 81.3 |  |

| SMILES | EC50 [µM] | IC50 [µM] | outcome |
| --- | --- | --- | --- |
| CCOC(=O)/C(=C\c1ccc(Br)cc1)C(C)=O | > 120 | 70.8 |  |
| Nc1nc(Cl)cc2nsnc12 | > 28.2 | > 28.2 |  |
| C/C(C=C(C#N)C#N)=C\c1ccc(C)cc1 | > 1200 | > 1200 |  |
| C(CCCCc1nnc(N2CCOCC2)o1)CCCc1nnc(N2CCOCC2)o1 | > 200 | 107 |  |
| c1ccc2c(c1)c(N1CCCCC1)cc1nc3c(cc(N4CCCCC4)c4ccccc43)nc12 | > 100 | > 100 |  |
| COc1ccc(N2C(=O)CC(c3c[nH]c4ccccc34)C2=O)cc1 (centres undefined) | > 200 | 182 |  |
| O=C(CSS(=O)(=O)O)c1ccccc1 | > 200 | > 200 |  |
| CCOC(=O)c1c(Sc2ccc([N+](=O)[O-])cc2[N+](=O)[O-])nc2c3ccccc3ccn12 | > 200 | > 200 |  |
| N#Cc1cn(C2OC(CO)C(O)C2O)c2ncnc(N)c12 (centres undefined) | > 0.2 | 0.00151 |  |
| C=C(C)C(=O)N1c2ccc(OC)cc2CC1C(=O)OCC (centres undefined) | > 200 | > 200 |  |
| CC1OC(OCC2OC(Oc3ccc4c(=O)c(-c5ccc6c(c5)OCO6)coc4c3)C(O)C(O)C2O)C(O)C(O)C1O (centres undefined) | 129 | 182 |  |
| COc1cccc(N(CN2C(=O)CCC2C(=O)O)C(C)=O)c1 (centres undefined) |  |  | inactive |
| CC(=O)O[C@H]1[C@@H](OC2CCCC2(c2ccccc2)c2ccccc2)O[N+]([O-])=C[C@@]12COCc1cc3c(cc12)OCO3 (some centres undefined) | > 200 | 11.7 |  |
| Cn1c(=O)c2[nH]c(/N=N\n3ccc4ccccc43)nc2n(C)c1=O | > 200 | 191 |  |
| CC1=C/C(=C(/c2ccccc2S(=O)(=O)O)c2cc(C)c(O)c(CN(CC(=O)O)CC(=O)O)c2C)C(C)=C(CN(CC(=O)O)CC(=O)O)C1=O |  |  | inactive |
| O=Cn1c2ccccc2c2ccccc21 | > 200 | 170 |  |
| CCC1CN2CCc3cc(OC)c(OC)cc3C2CC1CC1c2cc(OC)c(OC)cc2CCN1C(=O)C(N)Cc1ccccc1 (centres undefined) |  |  | inactive |
